Test results as given in patent publication US20220340629A1, “Myosin Derived Peptides and Related Compounds with Anticoagulant Activities” (THE SCRIPPS RESEARCH INSTITUTE, priority 0001, published 2022).
Like-named read-outs stand apart in the source and are kept apart here. One block for each molecule: values may come before it. Non-standard residues stand in square brackets, D forms with d. Residues, ends and D or L forms follow the SMILES beside them. No end group written: not given here. *: point of attachment. Arachidoyl = CCCCCCCCCCCCCCCCCCCC(=O)*; NMeN = CN[C@@H](CC(N)=O)C(=O)O; Nle = CCCC[C@H](N)C(=O)O

How the values were obtained:
[1] = biological target: skeletal muscle myosin-supported prothrombin activation by factors Xa and Va (Homo sapiens, UniProt P00742); assay: Assay 1A: prothrombin activation by factor Xa/factor Va/myosin in purified system; type: biochemical, human factors Xa and Va; rabbit skeletal muscle myosin; conditions: purified system
skeletal muscle myosin-supported prothrombin activation by factors Xa and Va (Homo sapiens, UniProt P00742), sequence (P00742 41-179): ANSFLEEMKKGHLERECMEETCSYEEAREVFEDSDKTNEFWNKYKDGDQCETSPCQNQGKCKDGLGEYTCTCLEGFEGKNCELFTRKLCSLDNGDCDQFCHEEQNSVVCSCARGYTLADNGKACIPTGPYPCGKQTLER
skeletal muscle myosin-supported prothrombin activation by factors Xa and Va (Homo sapiens, UniProt P00742), sequence (P00742 235-488): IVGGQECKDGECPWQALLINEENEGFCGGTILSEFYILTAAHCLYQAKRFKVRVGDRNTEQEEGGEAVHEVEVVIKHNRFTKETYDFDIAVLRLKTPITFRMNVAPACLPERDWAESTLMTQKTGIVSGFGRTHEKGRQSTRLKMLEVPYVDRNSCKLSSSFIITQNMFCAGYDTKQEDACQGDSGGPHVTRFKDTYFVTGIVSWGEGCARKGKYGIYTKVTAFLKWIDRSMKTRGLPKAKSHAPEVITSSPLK
skeletal muscle myosin-supported prothrombin activation by factors Xa and Va (Homo sapiens, UniProt P00742), sequence (P12259 29-737 partner): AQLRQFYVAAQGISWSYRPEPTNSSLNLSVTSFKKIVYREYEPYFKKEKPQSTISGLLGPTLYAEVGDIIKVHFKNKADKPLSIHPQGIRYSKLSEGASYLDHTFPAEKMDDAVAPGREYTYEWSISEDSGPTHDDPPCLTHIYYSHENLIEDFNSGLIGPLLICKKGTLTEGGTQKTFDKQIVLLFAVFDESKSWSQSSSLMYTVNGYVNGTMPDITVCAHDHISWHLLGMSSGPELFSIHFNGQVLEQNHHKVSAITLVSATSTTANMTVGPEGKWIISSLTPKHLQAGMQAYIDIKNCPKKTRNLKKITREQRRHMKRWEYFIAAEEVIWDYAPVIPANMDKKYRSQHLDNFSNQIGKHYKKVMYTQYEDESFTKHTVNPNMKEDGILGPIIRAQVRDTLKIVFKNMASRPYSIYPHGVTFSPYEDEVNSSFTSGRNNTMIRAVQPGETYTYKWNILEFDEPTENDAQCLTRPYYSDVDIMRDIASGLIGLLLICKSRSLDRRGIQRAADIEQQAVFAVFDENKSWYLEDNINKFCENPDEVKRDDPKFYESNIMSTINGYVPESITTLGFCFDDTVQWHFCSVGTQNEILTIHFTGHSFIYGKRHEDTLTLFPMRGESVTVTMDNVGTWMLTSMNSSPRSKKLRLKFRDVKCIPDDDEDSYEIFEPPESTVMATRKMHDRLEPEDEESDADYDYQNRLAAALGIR
skeletal muscle myosin-supported prothrombin activation by factors Xa and Va (Homo sapiens, UniProt P00742), sequence (P12259 1574-2224 partner): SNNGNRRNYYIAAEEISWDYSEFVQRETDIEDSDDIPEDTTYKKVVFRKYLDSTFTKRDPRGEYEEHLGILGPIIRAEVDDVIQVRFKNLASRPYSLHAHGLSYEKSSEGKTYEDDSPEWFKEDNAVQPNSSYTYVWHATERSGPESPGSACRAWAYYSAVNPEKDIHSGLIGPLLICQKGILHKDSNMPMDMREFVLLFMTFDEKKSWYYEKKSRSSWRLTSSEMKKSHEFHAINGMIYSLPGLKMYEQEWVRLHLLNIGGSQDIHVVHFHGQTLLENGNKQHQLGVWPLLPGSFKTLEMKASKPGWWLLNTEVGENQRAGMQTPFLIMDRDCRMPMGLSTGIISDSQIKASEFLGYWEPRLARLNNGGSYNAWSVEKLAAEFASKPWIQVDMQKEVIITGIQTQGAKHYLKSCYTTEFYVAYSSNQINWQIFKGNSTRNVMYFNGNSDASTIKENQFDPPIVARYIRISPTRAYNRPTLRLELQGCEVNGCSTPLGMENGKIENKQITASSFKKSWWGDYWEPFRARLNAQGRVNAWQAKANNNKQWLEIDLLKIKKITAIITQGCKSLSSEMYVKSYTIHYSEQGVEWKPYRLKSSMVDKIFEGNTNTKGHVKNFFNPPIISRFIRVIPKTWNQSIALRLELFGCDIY

[2] = tested on: thrombin generation in human platelet poor plasma with skeletal muscle myosin; assay: Assay 2A: thrombin generation, recalcification of human platelet poor plasma + myosin; type: biochemical; conditions: human platelet poor plasma 30%, myosin 50 nM, CaCl2 10 mmol/L; read-out: 2A (recalcification +myosin)
Outline: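 Pooled normal human platelet-poor plasma (30%) preincubated 5 min at 37° C with 50 nM skeletal muscle myosin and peptide in DMSO. Coagulation triggered with 10 mmol/L CaCl2 plus fluorogenic Z-Gly-Gly-Arg-AMC; thrombin generation followed 25 min (ex 360/em 460 nm). IC50 = peptide concentration giving 50% inhibition of thrombin generation.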

[3] = tested on: thrombin generation in human whole blood; assay: Assay 4: thrombin generation in recalcified human whole blood; type: biochemical
Description: In addition to purified protein system and human plasma, assays using whole blood (Assay 4) were also performed to examine anti-coagulant activities of the peptides and derivative compounds. In these assays, freshly drawn anticoagulated human whole blood (80 μL aliquot) was incubated with peptide in DMSO or DMSO alone (control) for 5 min at 37° C. Then, fluorogenic thrombin substrate solution (Z-Gly-Gly-Arg-AMC) (I-1140) with 10 mmol/L CaCl2 (final) alone was added to the reaction mixture (total 110 μl) in 96 well plate to initiate coagulation. Thrombin generation was followed continuously for 25 min using SPECTRAmax GEMINI XS fluorometer (Molecular Devices, Sunnyvale, Calif.) with excitation and emission wavelengths set at 360 and 460 nm, respectively. The first derivative of fluorescence versus time was used to produce thrombin generation curves with the correction for substrate consumption and inner filter effect. IC50 were determined using a curve fit program in Prism7.0 (GraphPad Software, San Diego, Calif.).

[4] = tested on: skeletal muscle myosin-supported prothrombin activation by factors Xa and Va; assay: Assay 1A: prothrombin activation by factor Xa/factor Va/myosin in purified system; type: biochemical, human factors Xa and Va; rabbit skeletal muscle myosin; conditions: for inhibition of myosin-supported prothrombin activation: dose-dependent studies, FIG. 4, TFP 0-100 μM, ELC peptides 0-300 μM
[5] = biological target: T1, prothrombin activation by factor Xa and factor Va (no myosin) (Homo sapiens, UniProt P00742); assay: Assay 1B: prothrombin activation by factor Xa/factor Va, no myosin; type: biochemical; conditions: for inhibition of prothrombin activation in the absence of myosin: FIG. 4, peptide 0-300 μM
T1 construct: the same reaction mixture of factor Xa, factor Va and prothrombin
T1 sequence (P00742 41-179 limits assumed): as the sequence (P00742 41-179) above
T1 sequence (P00742 235-488 limits assumed): as the sequence (P00742 235-488) above

[6] = biological target: phospholipid-supported prothrombin activation by factors Xa and Va (Homo sapiens, UniProt P00742); assay: Assay 1C: phospholipid vesicle (PC/PS 80%/20%)-supported prothrombin activation; type: biochemical
phospholipid-supported prothrombin activation by factors Xa and Va, sequence (P00742 41-179 limits assumed): as the sequence (P00742 41-179) above
phospholipid-supported prothrombin activation by factors Xa and Va, sequence (P00742 235-488 limits assumed): as the sequence (P00742 235-488) above

[7] = tested on: thrombin generation in human plasma; assay: Thrombin generation assay in pooled normal human plasma (Examples 3 and 4); type: biochemical; conditions: screened at 25 μM, FIG. 3A
Description: Thrombin generation assay in pooled human plasma: The effect of synthetic peptides on thrombin generation in pooled normal human plasma (George King Bio-medical, Inc., Overland Park, KS) was tested as described (1,11). Briefly, normal human plasma (30 μl) was mixed with CTI, followed by the addition of peptide. Then, tissue factor (TF) (Innovin) (0.5[…] pM final) containing 30 mM Ca^++ in TBSA with fluorogenic thrombin substrate solution (I-1140) (Bachem Americas, Inc., Torrance, Calif.) were added to the plasma to initiate coagulation activation. The first derivative of the time course data for substrate hydrolysis yielded the thrombin generation curve, allowing measurement of thrombin generation during the initiation, propagation and termination phases of thrombin generation and the value for peak thrombin generated.

[8] = Metabolite identification after incubation in mouse plasma; type: in vitro ADME; conditions: incubated in mouse plasma, FIG. 8
[9] = biological target: T2, Human factor Xa (human, UniProt P00742 41-179; P00742 235-488, limits assumed); assay: cell-based or functional assay
T2 sequence (P00742 41-179 limits assumed, form in doubt, chain 1 of 2): as the sequence (P00742 41-179) above
T2 sequence (P00742 235-488 limits assumed, form in doubt, chain 2 of 2): as the sequence (P00742 235-488) above

[10] = biological target: T2, Human factor Xa; assay: cell-based or functional assay; remark: listed apart in the source
[11] = skeletal muscle myosin, factor Va 5 nM, factor Xa 0.2 nM, prothrombin 0.75 μM, 10 min, read-out: 1A (+myosin)

- IC50 [1, 11]: 400 nM
- IC50 [2]: 8300 nM
Molecule: CCCC[C@H](NC(=O)[C@H](Cc1c[nH]c2ccccc12)NC(=O)[C@@H]1CCCN1C(=O)[C@H](Cc1c[nH]c2ccccc12)NC(=O)[C@H](Cc1c[nH]cn1)NC(=O)[C@H](CCCCN)NC(=O)[C@@H](NC(=O)[C@H](CC(N)=O)NC(=O)[C@H](CCCC)NC(=O)[C@H](Cc1ccccc1)NC(=O)[C@H](CO)NC(=O)[C@H](CCCNC(=N)N)NC(=O)[C@@H](NC(=O)[C@H](CC(N)=O)NC(=O)[C@H](Cc1ccc(O)cc1)NC(=O)[C@H](CCC(N)=O)NC(=O)[C@@H](NC(=O)[C@@H](NC(=O)[C@H](Cc1ccccc1)NC(=O)[C@@H](NC(=O)[C@H](C)N)[C@@H](C)CC)[C@@H](C)O)[C@@H](C)CC)[C@@H](C)CC)C(C)C)C(=O)N[C@@H](CCCCN)C(N)=O [HC179] (H-AIFTIQYNIRSF[Nle]NVKHWPW[Nle]K-NH2; N-terminus assumed)
- 4 (recalcification), result in words ([3]; result in words): No activity

- inhibition of prothrombin activation in the absence of myosin [5]: inhibited
Molecule: RVFDKEGNGTVMGAELRHVL [ELC138-157]
- inhibition of myosin-supported prothrombin activation [4]: inhibited

- IC50 ([1]; prothrombin activation with myosin, read-out: 1A (+ myosin) IC50): 1990 nM
- IC50 ([4]; dose-dependency assays, FIG. 2A, myosin 2 nM, read-out: IC50, inhibition of myosin-supported prothrombin activation): 2300 nM
- IC50 ([5]; purified system, no myosin): 10800 nM
- IC50 ([6]; PC/PS vesicles 4 μM, read-out: IC50, phospholipid vesicles containing 20% phosphatidylserine-supported prothrombin activation): 104000 nM
- IC50 ([6]; purified system, phospholipid vesicles, read-out: 1C (+phospholipid)): 7500 nM
Molecule: CC[C@H](C)[C@H](NC(=O)[C@H](C)NC(=O)[C@@H](N)CCC(=O)O)C(=O)N[C@@H](Cc1ccccc1)C(=O)N[C@@H](CS)C(=O)N[C@H](C(=O)N[C@@H](CCC(N)=O)C(=O)N[C@@H](Cc1ccc(O)cc1)C(=O)N[C@@H](CC(N)=O)C(=O)N[C@H](C(=O)N[C@@H](CCCNC(=N)N)C(=O)N[C@@H](CO)C(=O)N[C@@H](Cc1ccccc1)C(=O)N[C@@H](CCSC)C(=O)N[C@@H](CC(N)=O)C(=O)N[C@H](C(=O)N[C@@H](CCCCN)C(=O)N[C@@H](Cc1c[nH]cn1)C(=O)N[C@@H](Cc1c[nH]c2ccccc12)C(=O)N1CCC[C@H]1C(=O)N[C@@H](Cc1c[nH]c2ccccc12)C(=O)N[C@@H](CCSC)C(=O)N[C@@H](CCCCN)C(=O)N[C@@H](CC(C)C)C(=O)N[C@@H](Cc1ccccc1)C(=O)N[C@@H](Cc1ccccc1)C(=O)N[C@@H](CCCCN)C(=O)N[C@H](C(=O)N[C@@H](CCCCN)C(=O)N1CCC[C@H]1C(=O)N[C@@H](CC(C)C)C(=O)N[C@@H](CC(C)C)C(=O)N[C@@H](CCCCN)C(=O)N[C@@H](CO)C(=O)N[C@@H](C)C(=O)N[C@@H](CCC(=O)O)C(=O)N[C@H](C(=O)N[C@@H](CCC(=O)O)C(=O)N[C@@H](CCCCN)C(=O)N[C@@H](CCC(=O)O)C(N)=O)[C@@H](C)O)[C@@H](C)CC)C(C)C)[C@@H](C)CC)[C@@H](C)CC [HC815-854] (H-EAIFCIQYNIRSFMNVKHWPWMKLFFKIKPLLKSAETEKE-NH2)
- inhibition of myosin-supported prothrombin activation at 5 μM ([4]; peptide 5 μM, FIG. 1A): inhibitory, to varying degrees
- inhibition of myosin-supported prothrombin activation at 100 μM ([4]; peptide 100 μM, FIG. 1A): inhibited
- inhibition of thrombin generation in human plasma [7]: significantly inhibited

- IC50 [1, 11]: 1100 nM
- 1C (+phospholipid) ([6]; phospholipid vesicle 4 μM, PS 20%/PC 80%, result in words): No activity
- sites of protease cleavage identified from metabolite identification [8]: six
Molecule: CC[C@H](C)[C@H](NC(=O)[C@H](C)N)C(=O)N[C@@H](Cc1ccccc1)C(=O)N[C@@H](CS)C(=O)N[C@H](C(=O)N[C@@H](CCC(N)=O)C(=O)N[C@@H](Cc1ccc(O)cc1)C(=O)N[C@@H](CC(N)=O)C(=O)N[C@H](C(=O)N[C@@H](CCCNC(=N)N)C(=O)N[C@@H](CO)C(=O)N[C@@H](Cc1ccccc1)C(=O)N[C@@H](CCSC)C(=O)N[C@@H](CC(N)=O)C(=O)N[C@H](C(=O)N[C@@H](CCCCN)C(=O)N[C@@H](Cc1c[nH]cn1)C(=O)N[C@@H](Cc1c[nH]c2ccccc12)C(=O)N1CCC[C@H]1C(=O)N[C@@H](Cc1c[nH]c2ccccc12)C(=O)N[C@@H](CCSC)C(=O)N[C@@H](CCCCN)C(N)=O)C(C)C)[C@@H](C)CC)[C@@H](C)CC [HC060] (H-AIFCIQYNIRSFMNVKHWPWMK-NH2)

- IC50 [2]: 1700 nM
- IC50 ([3]; CaCl2 10 mmol/L, read-out: 4 (recalcification)): 300 to 4000 nM
Molecule: CCCCCCCCCCCCCCCCCCCC(=O)NCCCC[C@H](NC(=O)[C@H](CCCNC(=N)N)NC(=O)[C@@H](NC(=O)[C@H](CC(N)=O)NC(=O)[C@H](Cc1ccc(O)cc1)NC(=O)[C@H](CCC(N)=O)NC(=O)[C@@H](NC(=O)[C@H](CO)NC(=O)[C@H](Cc1ccccc1)NC(=O)[C@@H](NC(=O)[C@H](C)N)[C@@H](C)CC)[C@@H](C)CC)[C@@H](C)CC)C(=O)N[C@@H](Cc1ccccc1)C(=O)N[C@@H](CCCC)C(=O)N(C)[C@@H](CC(N)=O)C(=O)N[C@H](C(=O)N[C@@H](CCCCN)C(=O)N[C@@H](Cc1c[nH]cn1)C(=O)N[C@@H](Cc1c[nH]c2ccccc12)C(=O)N1CCC[C@H]1C(=O)N[C@@H](Cc1c[nH]c2ccccc12)C(=O)N[C@@H](CCCC)C(=O)N[C@@H](CCCCN)C(=O)N[C@@H](CCCCN)C(=O)N[C@@H](CCCCN)C(=O)N[C@@H](CCCCN)C(=O)N[C@@H](CCCCN)C(N)=O)C(C)C [SL-1504-074A, AIFSIQYNIRXF(Nle)(N-MeN)VKHWPW(Nle)KKKKK] (H-AIFSIQYNIRK(Arachidoyl)F[Nle][NMeN]VKHWPW[Nle]KKKKK-NH2)

- inhibition of prothrombin activation in the absence of myosin [5]: did not
Molecule: YEDFVEGLRVFDKEGN [ELC129-144, Ac-YEDFVEGLRVFDKEGN-NH2]
- inhibition of myosin-supported prothrombin activation [4]: inhibited

- IC50, inhibition of myosin-supported prothrombin activation by purified factor Xa, factor Va and Ca++ ions [9]: 1200 nM
- IC50, Assay 1A (+myosin): prothrombin activation by factor Xa/factor Va/myosin in purified system [10]: 1300 nM
Molecule: ARCRGFLARVEYQRMVERREAIFCIQYNIRSFMNVKHWPW-NH2 (cysteine pairing not given here, Synthetic 40-mer; also called HC061) [Peptide HC796-835 (human skeletal muscle myosin heavy chain MYH2 residues 796-835)]
